From ChEMBL document CHEMBL5325456, “5-(4-Hydroxyphenyl)-3H-1,2-dithiole-3-thione derivatives of brefeldin A: Design, synthesis and cytotoxicity in MDA-MB-231 human breast cancer cells” (Bioorg Med Chem, 2023)

Assays:
[1] = system: A-375; experiment: Antiproliferative activity against human A-375 cells assessed as reduction in cell viability incubated for 48 hrs by CCk-8 assay; assay type: functional, cell-based; conditions: A-375, 48 h
[2] = Selectivity index, ratio of IC50 for antiproliferative activity against human L02 cells to IC50 for antiproliferative activity against human MDA-MB-231 cells; assay type: toxicity, cell-based; conditions: L02 cells and MDA-MB-231 cells, read-out: Ratio IC50
[3] = Antiproliferative activity against human L02 cells assessed as reduction in cell viability incubated for 48 hrs by CCk-8 assay; assay type: toxicity, cell-based
[4] = system: HepG2; experiment: Antiproliferative activity against human HepG2 cells assessed as reduction in cell viability incubated for 48 hrs by CCk-8 assay; assay type: functional, cell-based; conditions: HepG2, 48 h
[5] = system: DU-145; experiment: Antiproliferative activity against human DU-145 cells assessed as reduction in cell viability incubated for 48 hrs by CCk-8 assay; assay type: functional, cell-based; conditions: DU-145, 48 h
[6] = system: HeLa; experiment: Antiproliferative activity against human HeLa cells assessed as reduction in cell viability incubated for 48 hrs by CCk-8 assay; assay type: functional, cell-based
[7] = system: A549; experiment: Antiproliferative activity against human A549 cells assessed as reduction in cell viability incubated for 48 hrs by CCk-8 assay; assay type: functional, cell-based; conditions: A549, 48 h
[8] = system: MDA-MB-231; experiment: Antiproliferative activity against human MDA-MB-231 cells assessed as reduction in cell viability incubated for 48 hrs by CCk-8 assay; assay type: functional, cell-based; conditions: MDA-MB-231, 48 h

| IC50 [1] | IC50 [4] | IC50 [5] | IC50 [6] | IC50 [7] | IC50 [8] | Compound | selectivity ratio [2] | IC50 at 48 h [3] |
| --- | --- | --- | --- | --- | --- | --- | --- | --- |
| 640 nM | 3420 nM | 3640 nM | 770 nM | 1520 nM | 1410 nM | C[C@H]1CCC/C=C/[C@@H]2C[C@H](O)C[C@H]2[C@H](OC(=O)CCC(=O)OCCCCCCOc2ccc(-c3cc(=S)ss3)cc2)/C=C/C(=O)O1 | 2.31 | 3260 nM |
| 530 nM | 1720 nM | 1110 nM | 370 nM | 670 nM | 510 nM | C[C@H]1CCC/C=C/[C@@H]2C[C@H](O)C[C@H]2[C@H](OC(=O)CCCC(=O)OCCCCCCOc2ccc(-c3cc(=S)ss3)cc2)/C=C/C(=O)O1 | 6.35 | 3240 nM |
| 930 nM | 440 nM | 430 nM | 230 nM | 1040 nM | 160 nM | C[C@H]1CCC/C=C/[C@@H]2C[C@H](O)C[C@H]2[C@H](OC(=O)CCCC(=O)OCCCCOc2ccc(-c3cc(=S)ss3)cc2)/C=C/C(=O)O1 | 2.69 | 430 nM |

| Compound | IC50 [1] | IC50 [4] | IC50 [5] | IC50 [6] | IC50 [7] | IC50 [8] | selectivity ratio [2] | IC50 at 48 h [3] |
| --- | --- | --- | --- | --- | --- | --- | --- | --- |
| C[C@H]1CCC/C=C/[C@@H]2C[C@H](O)C[C@H]2[C@H](O)/C=C/C(=O)O1 [BREFELDIN A] | 39 nM | 120 nM | 160 nM | 44 nM | 56 nM | 54 nM | 1.74 | 94 nM |
